Assay results from the supplement of paper PMC11451515.

Experiments:
Assay in all cases: AUC of viability dose-response curve (% viability x log10 dose units); higher = less sensitive
Settings in all cases: 48 h
SEM cells = tested on: SEM cells
Outline: (§1)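 In 1536-well plates, leukemia cells adapted to each medium (500 or 1000 cells/well) were exposed for 48 h at 37°C to library compounds in DMSO across 11 threefold doses, 47 μM down to 0.79 nM. Viability was read by CellTiter-Glo One luminescence and normalised per plate to DMSO and cell-free wells. A four-parameter log-logistic fit over log10 doses was integrated by trapezoidal rule. This yielded the area under the curve, with over-full-viability curves scaled and quality-control failures dropped.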

P12-Ichikawa = tested on: P12-Ichikawa
Outline: as §1

NOMO1 = tested on: NOMO1
Outline: as §1

[1] = RPMI 5 mM glucose + 10% dialyzed FBS

| SMILES | AUC of viability dose-response curve (SEM cells; HPLM + 10% dialyzed FBS) | AUC of viability dose-response curve (SEM cells; RPMI 5 mM glucose + 10% FBS) | AUC of viability dose-response curve (SEM cells; [1]) | AUC of viability dose-response curve (P12-Ichikawa; HPLM + 10% dialyzed FBS) | AUC of viability dose-response curve (P12-Ichikawa; RPMI 5 mM glucose + 10% FBS) | AUC of viability dose-response curve (P12-Ichikawa; [1]) | AUC of viability dose-response curve (NOMO1; HPLM + 10% dialyzed FBS) | AUC of viability dose-response curve (NOMO1; RPMI 5 mM glucose + 10% FBS) | AUC of viability dose-response curve (NOMO1; [1]) |
| --- | --- | --- | --- | --- | --- | --- | --- | --- | --- |
| COc1cc2c(Oc3ccc(NC(=O)C4(C(=O)Nc5ccc(F)cc5)CC4)cc3F)ccnc2cc1OCCCN1CCOCC1 | 136 | 149 | 105 | 291 | 296 | 299 | 334 | 343 | 311 |
| CCc1c(C(=O)C(N)=O)c2c(OCC(=O)O)cccc2n1Cc1ccccc1 | 462 | 464 | 461 | 471 | 460 | 452 | 442 | 465 | 463 |
| Clc1cc(Cl)cc(CNc2ncncc2-c2ccc3c(c2)OCO3)c1 | 441 | 437 | 435 | 431 | 429 | 450 | 414 | 412 | 418 |
| CN(C)C(=O)c1ccc([S+](=O)([O-])c2ccc(NC(=O)[C@@](C)(O)C(F)(F)F)c(Cl)c2)cc1 | 472 | 417 | 444 | 455 | 448 | 446 | 411 | 425 | 451 |
| Oc1ccc(/C=C/c2cc(O)cc(O)c2)cc1 | 450 | 417 | 441 | 462 | 457 | 444 | 425 | 457 | 450 |
| Cn1cc(-c2ccc3nnc(C(F)(F)c4ccc5ncccc5c4)n3n2)cn1 | 463 | 469 | 455 | 447 | 452 | 454 | 469 | 435 | 470 |
| [NH2][Pt]([NH2])([Cl])[Cl] | 429 | 419 | 380 | 470 | 449 | 433 | 456 | 421 | 445 |
| Cc1nccn1CC1CCc2c(c3ccccc3n2C)C1=O (stereo unspecified) | 441 | 453 | 429 | 448 | 422 | 462 | 447 | 465 | 462 |
| CC(C)(C)C(=O)Oc1ccc([S+](=O)([O-])Nc2ccccc2C(=O)NCC(=O)O)cc1 | 465 | 436 | 471 | 416 | 423 | 420 | 428 | 437 | 443 |
| COc1cc2nc(N3CCCN(C)CC3)nc(NC3CCN(Cc4ccccc4)CC3)c2cc1OC | 389 | 416 | 419 | 407 | 401 | 385 | 378 | 406 | 384 |
| O=C(/C=C/c1c(C(=O)[O-])[nH]c2cc(Cl)cc(Cl)c12)Nc1ccccc1 | 466 | 466 | 463 | 466 | 464 | 467 | 471 | 444 | 462 |
| O=C(/C=C/c1cccc([S+](=O)([O-])Nc2ccccc2)c1)NO | 284 | 277 | 289 | 362 | 352 | 365 | 396 | 402 | 397 |
| N=C(N)NC(=O)c1nc(Cl)c(N)nc1N | 446 | 464 | 453 | 389 | 393 | 430 | 364 | 342 | 365 |
| CCCCCCCc1ccc(CCc2cccc(O)c2C(=O)O)cc1 | 474 | 474 | 461 | 445 | 434 | 435 | 472 | 445 | 441 |
| O=C1C[C@@H](c2ccc(O)cc2)Oc2cc(O)cc(O)c21 | 468 | 382 | 470 | 433 | 462 | 456 | 437 | 476 | 458 |
| CCNC(=O)c1cc2c(-c3cc(OCCN4CCCC4)c(Cl)cc3Cl)nc(N)nc2s1 | 379 | 375 | 368 | 415 | 389 | 380 | 381 | 355 | 373 |
| O=C(NC[C@H]1CN(c2ccc(N3CCOCC3=O)cc2)C(=O)O1)c1ccc(Cl)s1 | 423 | 459 | 444 | 372 | 376 | 395 | 345 | 312 | 345 |
| COc1cc(C(C)=O)ccc1OCCCN1CCC(c2noc3cc(F)ccc23)CC1 | 468 | 446 | 455 | 470 | 472 | 471 | 468 | 468 | 464 |
| CC(=O)O[C@@]1(CC[C@H]2[C@@H]3\C=C(C)/C4=C/C(=O)CC[C@]4(C)[C@H]3CC[C@]12C)C(C)=O | 444 | 455 | 472 | 470 | 460 | 464 | 459 | 465 | 449 |
| C1CCC(C(CC2CCCCN2)C2CCCCC2)CC1 (stereo unspecified) | 429 | 429 | 405 | 470 | 457 | 465 | 451 | 454 | 446 |
| CC1(C)CCC(=C(CN2CCN(CC2)C3=CC=C(C=C3)C(=O)N[S+]([O-])(=O)C4=CC(=C(N[C@H](CCN5CCOCC5)CSC6=CC=CC=C6)C=C4)[S+]([O-])(=O)C(F)(F)F)\C1)/C7=CC=C(Cl)C=C7 | 216 | 197 | 197 | 235 | 240 | 259 | 357 | 332 | 291 |
| O=C(Nc1cccc(Nc2ncc(Br)c(NCCc3cnc[nH]3)n2)c1)N1CCCC1 | 213 | 203 | 191 | 318 | 294 | 344 | 349 | 342 | 369 |
| CCCCNc1cc(C(=O)O)cc([S+](N)(=O)[O-])c1Oc1ccccc1 | 419 | 433 | 440 | 458 | 465 | 465 | 477 | 427 | 461 |
| OC[C@H]1O[C@H]([C@@H](F)[C@@H]1O)N2\C=C/C(=O)NC2=O | 454 | 463 | 432 | 460 | 475 | 449 | 470 | 430 | 464 |
